Numbered stars: 1 amine (or outer) side, 2 acyl side, 3 side chain; on linkers, the order of the positions; unused ones are H or OH. Square brackets hold non-standard residues; d marks the D form. Ends that are not written are not given here. Peptide text beside a SMILES is read from it. Nip(3R) = O=C([C@@H]1CCCN([*:1])C1)[*:2]; Dmt = Cc1cc(O)cc(C)c1C[C@H](N)C(=O)O; Inp = O=C(O)C1CCNCC1

This note sets out measurements from article PMC10901950, “Neuroprotective and Anti-inflammatory Effects of Rubiscolin-6 Analogs with Proline Surrogates in Position 2” (Neurochemical Research, 2023).

One series concerns SH-SY5Y cells. In words: Intracellular ROS production in 6-OHDA-treated SH-SY5Y cells. Type of series: cell-based, human. The note with it: 6-OHDA 100 µM; for decrease of ROS production stimulated by 6-OHDA: peptide at both 1 and 10 µM. How it is done:
The detection of ROS generated in injured cells was evaluated using the 5(6)-carboxy-2ʹ,7ʹ-dichlorofluorescein diacetate (carboxy-H2DCFDA) reagent (Invitrogen, Bleiswijk, Netherlands). After incubation, cells were washed with ice-cold Phosphate-Buffer Saline (PBS). Then, the carboxyl-H2DCFDA (100 µL, 20 µM) reagent was added and incubated for 1 h at 37 °C. Finally, the fluorescence intensity was measured at wavelengths of […], and ROS levels were presented in percentage of control (non-treated cells).

The next series relates to Caspase-3. As to the kind of experiment: Caspase-3 activity in 6-OHDA-treated SH-SY5Y cells. The note with it: 6-OHDA 100 µM, 6 h. Type of series: cell-based, human. How it is done:
Caspase-3 activity was assessed using “Caspase-3 fluorometric assay” (Sigma, St. Louis, MO, USA) with minor changes adapted by Silva et al.. The cells were treated with 6-OHDA (100 µM) for 6 h in the presence or absence of peptides. After this period, the culture medium was removed, and cells were rinsed with ice-cold PBS and collected by centrifugation at 3300×g for 5 min. The pellets were resuspended in lysis buffer, incubated for about 20 min on ice and finally centrifuged at 22,500×g, 4 °C, for 20 min. Cell lysates were processed following the manufacturer’s protocol, and fluorescence was read at wavelengths of 360 nm (excitation) and 460 nm (emission). Caspase-3 activity was calculated through the curve slope and presented as Δ fluorescence (a.u.)/mg of protein/min). Staurosporine (STAU, 1 µM) was used as positive control.

For series [1], the system named is LPS-stimulated RAW 264.7 cells. In words: Nitric oxide production in LPS-stimulated RAW 264.7 cells (Griess). Type of series: cell-based, mouse. The note with it: LPS 1 µg/mL, 24 h. As for the experimental part:
The level of NO production was determined in RAW 264.7 cells. Briefly, after cells attachment, they were treated with LPS (Millipore Sigma, Darmstadt, Germany) at 1 µg/mL for 24 h, and then the peptides were added for an additional 24 h. After cells’ treatment, the medium was collected, and the accumulation of NO metabolite in the cell culture supernatant was measured using Griess reagent (1% sulfanilamide and 0.1% naphthylethylenediamine dihydrochloride; Sigma Aldrich), where 50 µL of the supernatant was mixed with 50 µL of Griess reagent (40 mg/mL) in a 96-well plate. After incubation at room temperature and darkness for 10 min, the absorbance was measured at 540 nm. Cells treated with LPS without samples were used as the positive control of the inflammatory response.

In series [2] the test system is Male Swiss albino CD1 mice. In words: Spontaneous locomotor activity after icv injection. Type of series: in vivo, mouse. Particulars: healthy mice, recording from 10 min after injection, 8-10 mice per group. As for the experimental part:
Male Swiss albino CD1 mice (JANVIER LABS, Le Genest-Saint-Isle, France), weighing 20–26 g, were used in the in vivo experiments. The animals were housed in Makrolon cages (L: 40 cm, W: 25 cm, H: 18 cm; 20 mice/cage), with free access to a standard semisynthetic laboratory diet (RM3, SDS, DIETEX-France, Saint-Gratien, France). All animals were kept in a ventilated room, at a temperature of 22 ± 1 °C, under a 12-h light/12-h dark cycle (lights on between 7:00 a.m. and 7:00 p.m.).
Intracerebroventricular (icv) injections (10 µL/mouse) of R-6 and its analogs were performed in the left brain ventricle of manually immobilized mice, with a Hamilton microsyringe ([…], Hamilton, Bonaduz, Switzerland) connected to a needle (length: 3.5 mm, diameter: 0.5 mm), as described elsewhere. Intracerebroventricular injections were performed by an experienced investigator, who frequently controlled the regularity and success of the injections using a methylene blue dye and observed (after sacrifice and frontal brain sectioning) that the injection was successful in more than 95% of trials. It was also verified in several animals, after sacrifice, that the mark of the needle puncture on the parietal bone was located at least 1.5 mm behind the bregma and at least 2.5 mm before the lambda, with laterality between 1 and 2 mm relative to the brain median line. This corresponds to stereotaxic coordinates of the left lateral ventricle in Lehmann’s atlas for mice (Lehmann, 1974): anteriority 2.95e4.15 mm, laterality 0.95e2 mm, and depth 3e4.5 mm. All drugs for icv administration were dissolved in 0.9% NaCl just before treatment. The icv injection method was approved by the Regional Ethical Committee for Animal Experimentation (Normandy; no. N/10-04-04-12).
Tested peptides were dissolved in DMSO and diluted with saline solution to the desired concentrations.
Locomotor activity was assessed automatically in a computerized actimeter (Omnitech Electronics, Inc., Columbus, Ohio, USA) which monitored horizontal displacements and vertical movements. Ten minutes after the icv injection, mice were placed individually in 20 × 20 × 30 cm compartments in a dimly illuminated and quiet room, and then motor activity was recorded. The responses were expressed as the number of crossed beams by the mouse during three consecutive 20 min periods.

Where [3] appears, read: peptide 0.1 µM (lowest concentration).

On to `CC(C)C[C@H](NC(=O)C1CCN(C(=O)[C@@H](N)Cc2ccc(O)cc2)CC1)C(=O)N[C@@H](CC(=O)O)C(=O)N[C@@H](CC(C)C)C(=O)N[C@@H](Cc1ccccc1)C(N)=O` [analog 7, Tyr-Inp-Leu-Asp-Leu-Phe-NH2] (H-Y[Inp]LDLF-NH2), for which, in the series with SH-SY5Y cells (6 h), the “decrease of ROS production stimulated by 6-OHDA” value is “about 60%”. For the same molecule, the “effect on Caspase-3 activity induced by 6-OHDA” value (“effect … by 6-OHDA” below) in the series on Caspase-3 (peptides 0.1-10 µM) is reported as “most efficiently”. Moreover, the “NO level reached (relative to unstimulated control)” value in series [1] (LPS alone exceeded 330%) is given as around 125%. For the same molecule, the “effect on LPS-induced NO production” value in series [1] (setting [3]) is “most effectively reduced”. Also, the “effect on spontaneous (horizontal) locomotor activity” value (“effect on spontaneous” below) in series [2] was “do not affect locomotor activity”.

`Cc1cc(O)cc(C)c1C[C@H](N)C(=O)N1CCC(C(=O)N[C@@H](CC(C)C)C(=O)N[C@@H](CC(=O)O)C(=O)N[C@@H](CC(C)C)C(=O)N[C@@H](Cc2ccccc2)C(=O)O)CC1` [analog 5, Dmt-Inp-Leu-Asp-Leu-Phe-OH] (H-[Dmt][Inp]LDLF-OH): the “decrease of ROS production stimulated by 6-OHDA” value with SH-SY5Y cells (6 h) is on record as “about 60%”. Moreover, in the series on Caspase-3 (peptides 0.1-10 µM), the “effect … by 6-OHDA” value is recorded as “active only at the highest dose”. Besides, the “effect on LPS-induced NO production” value in series [1] (setting [3]) is recorded as “most effectively reduced”; in series [1] (peptide 10 µM), “comparable to the level determined in unstimulated cells”. In series [2], the “effect on spontaneous” value is “do not affect locomotor activity”.

As for YPLDLF [R-6, rubiscolin-6], the “decrease of intracellular ROS levels stimulated by 6-OHDA” value with SH-SY5Y cells (peptide 0.1 µM, 6 h) is “about 70%”. The “effect … by 6-OHDA” value in the series with Caspase-3 (peptides 0.1-10 µM) was “didn’t decrease”. Also, the “effect on spontaneous” value in series [2] is on record as “do not affect locomotor activity”.

Consider `Cc1cc(O)cc(C)c1C[C@H](N)C(=O)N1CCC[C@H]1C(=O)N[C@@H](CC(C)C)C(=O)N[C@@H](CC(=O)O)C(=O)N[C@@H](CC(C)C)C(=O)N[C@@H](Cc1ccccc1)C(=O)O` [analog 1, Dmt-Pro-Leu-Asp-Leu-Phe-OH] (H-[Dmt]PLDLF-OH), for which the “effect on ROS production” value with SH-SY5Y cells (peptide 10 µM) is “couldn’t decrease”. Further, in the series with Caspase-3 (peptide 10 µM), the “effect … by 6-OHDA” value was “showed the potency to suppress”.

As to `Cc1cc(O)cc(C)c1C[C@H](N)C(=O)N1CCC[C@@H](C(=O)N[C@@H](CC(C)C)C(=O)N[C@@H](CC(=O)O)C(=O)N[C@@H](CC(C)C)C(=O)N[C@@H](Cc2ccccc2)C(=O)O)C1` [analog 4, Dmt-(R)-Nip-Leu-Asp-Leu-Phe-OH] (H-[Dmt][Nip(3R)]LDLF-OH), the “effect on LPS-induced NO production” value in series [1] (setting [3]) was “most effectively reduced”.

As for `CC(C)C[C@H](NC(=O)C1CCN(C(=O)[C@@H](N)Cc2ccc(O)cc2)CC1)C(=O)N[C@@H](CC(=O)O)C(=O)N[C@@H](CC(C)C)C(=O)N[C@@H](Cc1ccccc1)C(=O)O` [analog 3, Tyr-Inp-Leu-Asp-Leu-Phe-OH] (H-Y[Inp]LDLF-OH), the “decrease of ROS production stimulated by 6-OHDA” value in the series on SH-SY5Y cells (6 h) is “about 60%”. The “effect … by 6-OHDA” value in the series on Caspase-3 (peptides 0.1-10 µM) is recorded as “most efficiently”. In series [1] (setting [3]), the “effect on LPS-induced NO production” value is listed as “most effectively reduced”. For the same molecule, the “effect on spontaneous” value in series [2] is on record as “do not affect locomotor activity”.
